US20260294857A1, “TREATMENT OF HYPOPARATHYROIDISM USING TRIPHENYL CALCILYTIC COMPOUNDS” (CALCILYTIX THERAPEUTICS, INC., priority 2023, published 2026)

Legend:
osteoporosis = conditions: late phase trials; postmenopausal women with osteoporosis; cited from earlier work
[1] = biological target: T1, calcium-sensing receptor (CaSR) (Homo sapiens, UniProt P41180); experiment: Ongoing open-label phase 2 proof-of-principle study in women with post-surgical hypoparathyroidism (PSH), NCT05735015; format: in vivo
T1 construct: oral CLTX-305 (encaleret) in post-surgical hypoparathyroidism subjects; clinical safety and blood calcium endpoints
T1 sequence (P41180 20-1078): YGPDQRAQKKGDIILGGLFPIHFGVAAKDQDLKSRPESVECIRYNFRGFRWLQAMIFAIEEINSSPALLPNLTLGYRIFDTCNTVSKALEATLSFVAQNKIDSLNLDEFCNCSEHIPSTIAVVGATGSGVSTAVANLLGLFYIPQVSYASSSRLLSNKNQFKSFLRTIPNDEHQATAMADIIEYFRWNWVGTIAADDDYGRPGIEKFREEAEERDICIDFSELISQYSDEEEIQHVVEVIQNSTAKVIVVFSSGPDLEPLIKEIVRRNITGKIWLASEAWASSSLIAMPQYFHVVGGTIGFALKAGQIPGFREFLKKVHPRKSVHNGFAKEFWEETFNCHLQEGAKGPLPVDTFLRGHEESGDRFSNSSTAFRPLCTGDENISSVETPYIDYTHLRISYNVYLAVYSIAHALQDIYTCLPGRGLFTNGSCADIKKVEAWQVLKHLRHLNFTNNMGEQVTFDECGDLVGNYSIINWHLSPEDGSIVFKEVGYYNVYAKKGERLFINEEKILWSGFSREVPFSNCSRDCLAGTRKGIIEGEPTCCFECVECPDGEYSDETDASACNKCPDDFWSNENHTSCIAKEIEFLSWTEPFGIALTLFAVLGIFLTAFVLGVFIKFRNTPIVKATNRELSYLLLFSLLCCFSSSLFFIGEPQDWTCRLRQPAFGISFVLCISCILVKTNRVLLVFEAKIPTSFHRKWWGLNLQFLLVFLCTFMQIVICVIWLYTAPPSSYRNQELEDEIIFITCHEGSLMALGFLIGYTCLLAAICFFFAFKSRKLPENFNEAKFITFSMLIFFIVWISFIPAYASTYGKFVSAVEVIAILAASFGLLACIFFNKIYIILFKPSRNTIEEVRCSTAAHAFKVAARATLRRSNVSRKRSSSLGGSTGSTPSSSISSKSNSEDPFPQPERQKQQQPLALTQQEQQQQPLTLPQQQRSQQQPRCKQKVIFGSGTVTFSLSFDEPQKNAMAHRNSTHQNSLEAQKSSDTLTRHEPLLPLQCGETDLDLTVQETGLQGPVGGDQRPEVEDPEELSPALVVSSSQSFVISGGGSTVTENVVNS
Description: Title: Phase 2 study of the PTH-independent Effects of formula (I) (e.g., CLTX-305) on Mineral Homeostasis in subjects with post-surgical hypoparathyroidism (PSH).
Study Description: This will be a single-site, proof-of-principle, open-label study to explore the PTH-independent effects of formula (I) (e.g., CLTX-305) on calcium homeostasis in subjects with low or undetectable PTH levels as a result of neck surgery (PSH).
Primary Endpoint: Percent change in Fractional Excretion of Calcium (FECa) from baseline (Day −1) to the final day of treatment (Day 6 or the last measurement while on formula (I) (e.g., CLTX-305)). FECa calculated using fasting blood levels and spot urine collection.
Secondary Endpoints: Proportion of subjects who achieve a concomitant normal fasting blood calcium (albumin-corrected calcium >8.5 mg/dL) and a normal 24-hour urinary calcium level (<250 mg/24 hours for women, <300 mg/24 hours for men) on formula (I) (e.g., CLTX-305) at any point between day 1 and day 5.
• Change in blood iPTH comparing average baseline iPTH to average peak iPTH on formula (I) (e.g., CLTX-305). The average baseline iPTH will include all baseline iPTH levels from the screening visit, Day −1, and pre-dose on Day 1. The average peak iPTH will average the peak iPTH levels on every day the subject is on formula (I) (e.g., CLTX-305) (days 1 to 5). An increase in iPTH will be considered clinically significant if there is an increase both by 50% AND by more than […]. • Change in 1,25-(OH)2 Vitamin D on formula (I) (e.g., CLTX-305) comparing the maximal level prior to receiving calcitriol (On Days 3-5) to baseline (Average of Day 1 Pre-dose levels). Increase will be considered significant if there is an increase of more than 50%. Subjects who receive calcitriol prior to Day 3 will be excluded. • Percent change in Fractional Excretion of Calcium (FECa) from baseline […] to the final day of treatment (Day 6 or the last measurement while n encaleret). FECa calculated using fasting blood levels and spot urine collection. • Pharmacodynamic endpoints measured over 5 days of formula (I) (e.g., CLTX-305) therapy: • Blood iPTH—Absolute levels and change from baseline • Albumin-corrected blood calcium—Absolute levels and change from baseline • Ionized Calcium—Absolute levels and change from baseline • Urinary calcium clearance (fractional excretion and 24-hour total excretion)—Absolute levels and change from baseline • Serum levels of 1,25-(OH)2 Vitamin D—Absolute levels and change from baseline • Blood intact FGF23 (iFGF23) and C-terminal FGF23 (cFGF23)—Absolute levels and change from baseline • Urine cAMP and citrate—Absolute levels and change from baseline • Blood bone resorption marker, collagen cross-linked C-telopeptide (CTx)—Absolute levels and change from baseline • Blood bone formation marker, blood procollagen type 1 N-propeptide (P1NP)—Absolute levels and change from baseline • Change in components of urine including: supersaturation, sodium, potassium, calcium, magnesium, chloride, phosphorus, sulfate, citrate excretion, oxalate, pH, uric acid, creatinine, osmolality, ammonium, urea nitrogen, protein catabolic rate • PK parameters such as maximum plasma concentration Cmax), time to maximum plasma concentration (tmax), apparent terminal half-life (t½) • Subgroup analysis of other primary, secondary, and tertiary endpoints
Intervention: CLTX-305 will be provided as an oral film-coated tablet. Each tablet contains 54 mg of formula (I) on a salt-free and anhydrous basis (i.e., 60 mg of CLTX-305). Subjects will receive 3 tablets twice a day (BID).
The investigational medicinal product (IMP), formula (I) (e.g., CLTX-305), will be provided as film-coated tablets containing the active ingredient formula (I) on a salt-free and anhydrous basis provided in 54 mg dosage strength. Subjects will receive active ingredient formula (I) 162 mg (i.e., 180 mg CLTX-305) (3 tablets) BID per protocol with water. […]

[2] = test system: calcium-sensing receptor (CaSR); conditions: individuals with functioning parathyroid tissue; calcilytics (e.g., CLTX-305); cited from earlier work
[3] = thiazide discontinuation before treatment; cited from earlier work

Cc1cc(-c2ccccc2[C@@H](C)OC[C@H](O)CNC(C)(C)Cc2ccc(Cl)c(F)c2)ccc1C(=O)O [CLTX-305]
Bone mineral density (BMD) efficacy (osteoporosis): failed to demonstrate efficacy on endpoints of bone mineral density (BMD)
PTH after transient increase ([1]; after the 30 minutes increase, baseline 7.4 pg/mL, n=4): returned to near baseline levels
FECa, effect in words ([1]; first four participants with PSH): reduced FECa
Serious adverse events ([1]; four women with PSH): no serious adverse events reported
Treatment-related adverse events (AEs) ([1]; four women with PSH): mild hypercalcemia causing headache in 1 participant
Bone turnover markers ([1]; four women with PSH, 162 mg every 12 hours, up to 10 doses): normal and did not change
PTH, transient increase ([1]; mean (range), 30 minutes after the first dose, baseline 7.4 pg/mL (range 4.6-10.1; nl 15-65), n=4): 13.0 (4.5-18.1) pg/mL
Decrease in fractional excretion of calcium (FECa) ([1]; mean (range), fasting, 12 hours after last dose vs fasting baseline pre-dose, four women with PSH, CLTX-305 162 mg every 12 hours for up to 10 doses): 52% (34-78)
Albumin-corrected blood calcium ([1]; mean (range), fasting, 12 hours after last dose, baseline 8.4 mg/dL (range 8.1-8.6; nl 8.4-10.2), 162 mg every 12 hours, up to 10 doses, n=4): 9.3 (8.6-10.7) mg/dL
Urinary calcium excretion ([1]; mean (range), on treatment, baseline 348 mg/day (range 204-501; nl<250), 162 mg every 12 hours, up to 10 doses, n=4): 169 (76-350) mg/day
Participants who discontinued calcium supplementation to maintain eucalcemia ([1]; of four women with PSH, all received calcium supplementation initially): 1 participant
Participants who required re-initiation of low-dose calcitriol to maintain eucalcemia ([1]; of four women with PSH, calcitriol 0.25 mcg daily): 3
Normalization of urinary calcium excretion ([1]; of four women with PSH, nl<250 mg/day): 3 participants
24-hour urine calcium despite elevated blood calcium ([1]; one participant with mild hypercalcemia): < 200 mg/day
Time for which blood calcium continued to be mildly elevated after the last dose ([1]; one participant with mild hypercalcemia, calcium and calcitriol supplementation discontinued): 60 h
Decrease in urinary calcium excretion in the fourth participant ([1]; one participant without normalization, 162 mg every 12 hours, up to 10 doses): 30%
Blood calcium levels, in words [2]: increased blood calcium levels
PTH secretion [2]: increase PTH secretion
Urinary calcium excretion, in words [2]: decrease urinary calcium excretion

NS(=O)(=O)c1cc2c(cc1Cl)N=CNS2(=O)=O [chlorothiazide]
5 half-lives [3]: 10 h

NS(=O)(=O)c1cc(C2(O)NC(=O)c3ccccc32)ccc1Cl (stereo not shown) [chlorthalidone]
5 half-lives [3]: 300 h

NS(=O)(=O)c1cc2c(cc1Cl)NCNS2(=O)=O [hydrochlorothiazide]
5 half-lives [3]: 75 h
